Laboratory results as given in patent US8030314B2, “Use of 2h-benzimidazol-2-one, 1,3-dihydro-1-(2{4-[3-(trifluoromethyl)phenyl]-1-piperazinyl}ethyl)-and its physiologically acceptable acid addition salts” (priority 2001, dated 2011).

What was measured:
[1] = tested on: levodopa-induced dyskinesias; assay: levodopa-induced dyskinesias in MPTP-treated common marmosets; type: in vivo, common marmosets (callithrix jacchus)
Description: In order to investigate the efficacy of flibanserin in the treatment of levodopa-induced dyskinesias, experiments in a primate model of Parkinson's disease were performed. 6 common marmosets (callithrix jacchus) that developed chronical Parkinsonian motor deficits after MPTP administration were treated orally with levodopa plus carbidopa for 3 weeks according to the procedure described by Pearce et al. (1995). […] The severity of dyskinesias was measured by assessing the extent of choreic and dystonic movements in all parts of the body.

[2] = tested on: cultured dopaminergic cells (from fetal rat mesencephalic tissue); assay: survival of cultured dopaminergic cells exposed to 6-hydroxydopamine; type: cell-based; conditions: toxin (6-hydroxydopamine) co-administered with flibanserin
Description: The reason of developing Parkinson's disease is a chronic process leading to a loss of dopaminergic neurons in a certain area of the EPS (substantia nigra). That process may be simulated in an experiment using cultured dopaminergic cells (from fetal rat mesencephalic tissue) which are exposed to a selective toxin (6-hydroxydompamine). The experiments were conducted in accordance with the method of Michel and Hefti, 1990. When the toxin was added to the cell culture medium the survival time of the neurons was markedly diminished. […] This indicates additionally neuroprotective properties of flibanserin. On the basis of these experiments it can be expected that patients treated with flibanserin will take benefit from said neuroprotective effect by slowing down or stopping the progression of the disease . Moreover, if flibanserin is given in early stages of the disease, a steady process leading to more severe stages may be postponed or even avoided. In particular, the occurrence of levodopa-induced dyskinesias can be prevented. In-so-far, a synergistic effect of the common administration of conventional anti-Parkinson drugs along with flibanserin in the treatment of Parkinson's disease is to be expected as increased “ON”-periods and decreased “OFF”-periods may be obtained.

tardive dyskinesias = assay: persistent tardive dyskinesia model in baboons; type: in vivo; conditions: baboons with persistent tardive dyskinesia induced by a haloperidol derivative for 41 weeks
Excerpt: The clinical appearance of levodopa-induced dyskinesias and of tardive dyskinesias are very often similar. […] dyskinesias are frequently observed in chronic schizophrenic patients after long-term treatment with neuroleptics. Recently an animal model of tardive dyskinesia was developed by Eyles at al. 2000. Persistent tardive dyskinesias were induced in 6 baboons by application of a derivative of haloperidol for 41 weeks until the animals developed abnormal orofacial signs that were consistent with tardive dyskinesia. These symptoms persisted during the drug-free period. The extent of dyskinesias was assessed by using a score derived fromt that applied in humans (Abnormal Involuntary Movement Scale). There was a significant improvement of dyskinesias by more than 50% after application of flibanserin. That means that flibanserin is also helpful in the treatment of tardive dyskinesia in chronic schizophrenic patients.

[3] = tested on: 5-HT inhibitory response (forskolin-stimulated cAMP accumulation); conditions: rat cortex; read-out: reduced forskolin-stimulated cAMP accumulation (EC50); cited from earlier work
5-HT-induced PI turnover = conditions: rat cortex; read-out: antagonized 5-HT-induced PI turnover (Ki); cited from earlier work
rat cortical firing rate = conditions: in vivo; cited from earlier work

O=c1[nH]c2ccccc2n1CCN1CCN(c2cccc(C(F)(F)F)c2)CC1 [flibanserin, 2H-benzimidazol-2-one, 1,3-dihydro-1-(2-{4-[3-(trifluoromethyl)phenyl]-1-piperazinyl}ethyl)-]
effect of levodopa on rigidity and bradykinesia ([1]; flibanserin in addition to levodopa): not weakened
severity of dyskinesias (extent of choreic and dystonic movements) ([1]; flibanserin in addition to levodopa, MPTP marmosets treated orally with levodopa plus carbidopa for 3 weeks): significantly reduced said dyskinesias
dyskinesia symptoms in monkeys with less severe dyskinesia ([1]; some of the monkeys with less severe dyskinesia): symptoms disappeared entirely
concentrations at which normal survival times were reached [2]: 0.1 to 1 µM
survival time of neurons [2]: increased in a concentration-dependent manner
improvement of dyskinesias (score derived from Abnormal Involuntary Movement Scale) (tardive dyskinesias): more than 50%
EC50 [3]: 913 nM
Ki (5-HT-induced PI turnover): 113 nM
inhibition of rat cortical firing rate (rat cortical firing rate): dose-dependently inhibited rat cortical firing rate
